The record followed here is patent US20160222014A1, “COMPOUNDS FOR REGULATING FAK AND/OR SRC PATHWAYS” (ASANA BIOSCIENCES, LLC, priority 2013, published 2016).

In this test the target is T1, Phospho Src(Y416) (Homo sapiens, UniProt P12931).
T1 construct: endogenous in cells; host or cells: Panc1
Put plainly: Phospho Src(Y416) Sandwich ELISA. It is filed as cell-based. As to conditions: Panc1; read-out: pSrc EC50 (μM) Panc1. As for the experimental part:
E. Phospho Src(Y416) Sandwich ELISA
Phospho Src(Y416) Sandwich ELISA kit was obtained from Cell Signaling Tech.
(i) Reagent Preparation • 1. All microwell strips were brought to rt before use. • 2. 1× Wash Buffer was prepared by diluting 20× Wash Buffer (included in each PathScan® Sandwich ELISA Kit) in MilliQ® water or equivalently purified water. • 3. 1× Cell Lysis Buffer from CST #9803: 20 mM Tris (pH 7.5), 150 mM NaCl, 1 mM ethylene diamine tetraacetate (EDTA), 1 mM ethylene glycol-bis(2-aminoethyl)-N,N,N′,N′-tetraacetic acid (EGTA), 1% Triton™ X-100, 2.5 mM sodium pyrophosphate, 1 mM b-glycerophosphate, 1 mM Na3VO4, 1 μg/mL leupeptin. This buffer was stored at 4° C. for short-term use (1-2 weeks).
(ii) Preparing Cell Lysates • 1. The media was aspirated. The cells were treated by adding fresh media containing inhibitor for 1 h. The compound of Example 214 was used as reference. • 2. The cells were harvested under non-denaturing conditions by removing media and rinsing cells once with ice-cold PBS. • 3. PBS was removed, 0.5 mL ice-cold 1× Cell Lysis Buffer plus 1 mM phenylmethylsulfonylfluoride (PMSF) was added to each plate (10 cm in diameter) and the plate incubated on ice for 5 min. • 4. The cells were scraped off of the plate, transferred to an appropriate tube, and kept on ice. • 5. The lysates were sonicated on ice. • 6. Microcentrifugation was performed for 10 min at 4° C. and the supernatant transferred to a new tube. The supernatant was the cell lysate and was stored at −80° C. in single-use aliquots.
(iii) Test Procedure • 1. After the microwell strips reached rt, the required number of microwells were broken off. The microwells were placed in the strip holder. Unused microwells were resealed and stored at 4° C. immediately. • 2. 100 μL of Sample Diluent (supplied in each PathScan® Sandwich ELISA Kit, blue color) was added to a micro centrifuge tube. 100 μL of cell lysate was transferred into the tube and vortexed for a few seconds. […] Individual data sheets for each kit provided information regarding an appropriate dilution factor for lysates and kit assay results. However, dilution factors were titrated when specific cell lysates are used. • 3. 100 μL of each diluted cell lysate were added to the appropriate well. It was then sealed with tape and pressed firmly onto top of microwells. The plate was incubated for 2 h at 37° C. Alternatively, the plate was incubated overnight at 4° C., which gave the best detection of target protein. • 4. The tape was gently removed and the wells washed: • a. The plate contents were discarded into a receptacle. • b. Each well was washed 4 times with 1× Wash Buffer, 200 μL. • c. For each wash, plates were struck on fresh towels hard enough to remove the residual solution in each well, but wells were not allowed to completely dry at any time. • d. The underside of all wells was cleaned with a lint-free tissue. • 5. 100 μL of Detection Antibody (green color) was added to each well, sealed with tape and the plate incubated for 1 h at 37° C. • 6. The wash procedure was repeated as in Step 4. • 7. 100 μL of HRP-linked secondary antibody (red color) was added to each well, sealed with tape and the plate incubated plate for 30 min at 37° C. • 8. The wash procedure was repeated as in Step 4. • 9. 100 μL of TMB Substrate was added to each well, sealed with tape and the plate incubated for 10 min at 37° C. or 30 min at 25° C. • 10. 100 μL of STOP Solution was added to each well and shaken gently for a few seconds. Initial color of positive reaction was blue, which changed to yellow upon addition of STOP Solution. • 11. The results were read. • a. Visual Determination—read within 30 min after adding STOP Solution. • b. Spectrophotometric Determination—the underside of wells were wiped with a lint-free tissue and absorbance read at 450 nm within 30 min after adding STOP Solution.

The EC50 is the concentration giving half of the maximal effect.

T1 sequence (P12931 whole entry): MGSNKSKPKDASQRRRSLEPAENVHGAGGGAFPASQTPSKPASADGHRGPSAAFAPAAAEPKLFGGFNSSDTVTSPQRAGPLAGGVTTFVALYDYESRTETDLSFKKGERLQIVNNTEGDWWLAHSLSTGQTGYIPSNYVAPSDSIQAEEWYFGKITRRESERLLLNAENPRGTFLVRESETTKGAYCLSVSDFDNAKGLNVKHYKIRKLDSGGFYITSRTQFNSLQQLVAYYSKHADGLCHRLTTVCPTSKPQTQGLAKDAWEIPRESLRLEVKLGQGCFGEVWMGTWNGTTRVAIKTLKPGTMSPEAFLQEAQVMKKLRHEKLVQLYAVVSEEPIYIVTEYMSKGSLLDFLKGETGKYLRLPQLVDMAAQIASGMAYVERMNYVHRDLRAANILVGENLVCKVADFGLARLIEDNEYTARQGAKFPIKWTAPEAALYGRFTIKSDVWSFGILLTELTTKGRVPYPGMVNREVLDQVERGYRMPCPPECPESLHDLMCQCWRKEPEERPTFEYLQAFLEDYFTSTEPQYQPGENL

`CN(c1ncccc1Cn1ncc2cnc(Nc3ccc4[nH]c(=O)[nH]c4c3)cc21)S(C)(=O)=O` [Example 142]: the 50% effective concentration (EC50) is > 1 µM.
In the case of `O=S(=O)(c1cccc2nsnc12)n1ccc2cnc(Nc3ccc(N4CCNCC4)cc3)nc21` [Example 253], the EC50 was > 1 µM.
For `O=C1CCc2cc(Nc3ncc4ccn(S(=O)(=O)c5cccc6cccnc56)c4n3)ccc2N1` [Example 169], the EC50 is > 1 µM.
The figure for `CN(c1ncccc1Cn1ccc2cnc(Nc3ccc(N4CCCC4CO)cc3)nc21)S(C)(=O)=O` (stereo not drawn) [Example 536] is > 1 µM; for `CN(c1ncccc1Cn1ccc2cnc(Nc3ccc(NCCO)cc3)nc21)S(C)(=O)=O` [Example 201] it is > 1 µM; for `CC(=O)Nc1cccc(Nc2cc3c(cn2)cnn3Cc2ccccc2OC(F)F)c1` [Example 64] it is > 1 µM.
For `FC(F)Oc1ccccc1Cn1ccc2cnc(Nc3ccc4ncsc4c3)nc21` [Example 36] the value was > 1 µM.
For `Cn1cc(Nc2ncc3ccn(S(=O)(=O)c4cccc5cccnc45)c3n2)cn1` [Example 318] the value was > 1 µM; for `O=C1CCc2cc(Nc3ncc4cnn(Cc5ccccc5OC(F)F)c4n3)ccc2N1` [Example 21], > 1 µM.
`CN(c1ncccc1Cn1ncc2cnc(Nc3ccc4c(c3)CCC(=O)N4)nc21)S(C)(=O)=O` [Example 202]: the half-maximal effective concentration (EC50) is > 1 µM.
For `COc1ccccc1S(=O)(=O)n1ncc2cnc(Nc3ccc(N4CCNCC4)cc3)nc21` [Example 335], the EC50 was > 1 µM.
For the compound `FC(F)Oc1ccccc1Cn1ncc2cnc(Nc3ccc4ncsc4c3)cc21` [Example 82], the EC50 is > 1 µM.
